Source: the CheMixHub viscosity set

Assay: xn = mol fraction of the nth substance listed

CN1CCCC1=O + O
Conditions	viscosity [mPa·s]
293.15 K, 101 kPa, x1 = 0.6997	2.865
298.15 K, 101 kPa, x1 = 0.02	1.2
298.15 K, 101 kPa, x1 = 0.0505	1.809
298.15 K, 101 kPa, x1 = 0.0985	2.79
298.15 K, 101 kPa, x1 = 0.0997	2.778
298.15 K, 101 kPa, x1 = 0.1202	3.198
298.15 K, 101 kPa, x1 = 0.1503	3.914
298.15 K, 101 kPa, x1 = 0.1702	4.125
298.15 K, 101 kPa, x1 = 0.1881	4.44
298.15 K, 101 kPa, x1 = 0.1999	4.578
298.15 K, 101 kPa, x1 = 0.2205	4.804
298.15 K, 101 kPa, x1 = 0.2496	5.035
298.15 K, 101 kPa, x1 = 0.2697	5.12
298.15 K, 101 kPa, x1 = 0.2937	5.154
298.15 K, 101 kPa, x1 = 0.3053	5.1
298.15 K, 101 kPa, x1 = 0.3496	5.006
298.15 K, 101 kPa, x1 = 0.3959	4.59
298.15 K, 101 kPa, x1 = 0.3999	4.679
298.15 K, 101 kPa, x1 = 0.45	4.31
298.15 K, 101 kPa, x1 = 0.4954	3.77
298.15 K, 101 kPa, x1 = 0.4999	3.909
298.15 K, 101 kPa, x1 = 0.5941	3.07
298.15 K, 101 kPa, x1 = 0.6002	3.214
298.15 K, 101 kPa, x1 = 0.6917	2.55
298.15 K, 101 kPa, x1 = 0.7	2.676
298.15 K, 101 kPa, x1 = 0.786	2.18
298.15 K, 101 kPa, x1 = 0.7997	2.299
298.15 K, 101 kPa, x1 = 0.8859	1.9
298.15 K, 101 kPa, x1 = 0.8962	2.023
298.15 K, 101 kPa, x1 = 0.9498	1.908
298.15 K, 101.15 kPa, x1 = 0.0501	1.74
298.15 K, 101.15 kPa, x1 = 0.0701	2.137
298.15 K, 101.15 kPa, x1 = 0.1001	2.762
298.15 K, 101.15 kPa, x1 = 0.2004	4.555
298.15 K, 101.15 kPa, x1 = 0.3004	5.062
298.15 K, 101.15 kPa, x1 = 0.4012	4.505
298.15 K, 101.15 kPa, x1 = 0.503	3.729
298.15 K, 101.15 kPa, x1 = 0.5937	3.075
298.15 K, 101.15 kPa, x1 = 0.7023	2.503
298.15 K, 101.15 kPa, x1 = 0.9006	1.836
298.16 K, 101 kPa, x2 = 0.0836	1.84
298.16 K, 101 kPa, x2 = 0.1794	2.14
298.16 K, 101 kPa, x2 = 0.3006	2.72
298.16 K, 101 kPa, x2 = 0.4221	3.52
298.16 K, 101 kPa, x2 = 0.5466	4.45
298.16 K, 101 kPa, x2 = 0.6595	5.05
298.16 K, 101 kPa, x2 = 0.6861	5.04
298.16 K, 101 kPa, x2 = 0.7608	4.66
298.16 K, 101 kPa, x2 = 0.7976	4.23
298.16 K, 101 kPa, x2 = 0.8599	3.2
303.15 K, 101 kPa, x1 = 0.3001	4.365
303.15 K, 101 kPa, x1 = 0.899	1.705
308.15 K, 101 kPa, x1 = 0.02	0.9403
308.15 K, 101 kPa, x1 = 0.0505	1.375
308.15 K, 101 kPa, x1 = 0.1202	2.303
308.15 K, 101 kPa, x1 = 0.1702	2.895
308.15 K, 101 kPa, x1 = 0.1999	3.179
308.15 K, 101 kPa, x1 = 0.2205	3.323
308.15 K, 101 kPa, x1 = 0.2496	3.478
308.15 K, 101 kPa, x1 = 0.2697	3.539
308.15 K, 101 kPa, x1 = 0.2937	3.574
308.15 K, 101 kPa, x1 = 0.3202	3.591
308.15 K, 101 kPa, x1 = 0.3496	3.518
308.15 K, 101 kPa, x1 = 0.3999	3.351
308.15 K, 101 kPa, x1 = 0.45	3.147
308.15 K, 101 kPa, x1 = 0.4999	2.912
308.15 K, 101 kPa, x1 = 0.6002	2.487
308.15 K, 101 kPa, x1 = 0.7	2.138
308.15 K, 101 kPa, x1 = 0.7997	1.883
308.15 K, 101 kPa, x1 = 0.8962	1.691
313.15 K, 101.15 kPa, x1 = 0.0501	1.178
313.15 K, 101.15 kPa, x1 = 0.0701	1.402
313.15 K, 101.15 kPa, x1 = 0.1001	1.744
313.15 K, 101.15 kPa, x1 = 0.2004	2.684
313.15 K, 101.15 kPa, x1 = 0.3004	2.975
313.15 K, 101.15 kPa, x1 = 0.4012	2.777
313.15 K, 101.15 kPa, x1 = 0.503	2.44
313.15 K, 101.15 kPa, x1 = 0.5937	2.125
313.15 K, 101.15 kPa, x1 = 0.7023	1.818
313.15 K, 101.15 kPa, x1 = 0.8066	1.585
313.15 K, 101.15 kPa, x1 = 0.9006	1.43
318.15 K, 101 kPa, x1 = 0.0997	1.548
318.15 K, 101 kPa, x1 = 0.1202	1.73
318.15 K, 101 kPa, x1 = 0.1503	2.039
318.15 K, 101 kPa, x1 = 0.1702	2.13
318.15 K, 101 kPa, x1 = 0.1999	2.32
318.15 K, 101 kPa, x1 = 0.2205	2.417
318.15 K, 101 kPa, x1 = 0.2496	2.527
318.15 K, 101 kPa, x1 = 0.2697	2.572
318.15 K, 101 kPa, x1 = 0.2937	2.603
318.15 K, 101 kPa, x1 = 0.3202	2.623
318.15 K, 101 kPa, x1 = 0.3496	2.589
318.15 K, 101 kPa, x1 = 0.3999	2.503
318.15 K, 101 kPa, x1 = 0.45	2.387
318.15 K, 101 kPa, x1 = 0.4999	2.245
318.15 K, 101 kPa, x1 = 0.6002	1.977
318.15 K, 101 kPa, x1 = 0.7997	1.571
318.15 K, 101 kPa, x1 = 0.9498	1.375
323.15 K, 101 kPa, x1 = 0.6997	1.485
323.15 K, 101.15 kPa, x1 = 0.0501	0.942
323.15 K, 101.15 kPa, x1 = 0.0701	1.106
323.15 K, 101.15 kPa, x1 = 0.2004	1.995
323.15 K, 101.15 kPa, x1 = 0.4012	2.116
323.15 K, 101.15 kPa, x1 = 0.503	1.935
323.15 K, 101.15 kPa, x1 = 0.7023	1.509
323.15 K, 101.15 kPa, x1 = 0.8066	1.343

[Br-].[Na+] + O
viscosity [mPa·s]
Conditions	100 kPa	101.3 kPa
293.15 K, x1 = 0.0009	–	1.005
293.15 K, x1 = 0.0018	–	1.007
293.15 K, x1 = 0.00893	–	1.027
293.15 K, x1 = 0.0177	–	1.055
293.15 K, x1 = 0.03478	–	1.131
293.15 K, x1 = 0.05127	–	1.235
293.15 K, x1 = 0.06722	–	1.368
293.15 K, x1 = 0.09755	–	1.746
293.15 K, x1 = 0.126	–	2.317
298.15 K, x1 = 0.00088	0.8936	–
298.15 K, x1 = 0.0009	–	0.8935
298.15 K, x1 = 0.0018	–	0.8956
298.15 K, x1 = 0.00351	0.895	–
298.15 K, x1 = 0.00368	0.9007	–
298.15 K, x1 = 0.00829	0.9176	–
298.15 K, x1 = 0.00879	0.9099	–
298.15 K, x1 = 0.00893	–	0.9162
298.15 K, x1 = 0.0101	0.9211	–
298.15 K, x1 = 0.0146	0.9363	–
298.15 K, x1 = 0.0177	0.9479	0.9443
298.15 K, x1 = 0.01952	0.9523	–
298.15 K, x1 = 0.02624	0.9808	–
298.15 K, x1 = 0.03478	–	1.016
298.15 K, x1 = 0.03489	1.022	–
298.15 K, x1 = 0.04115	1.054	–
298.15 K, x1 = 0.05064	1.112	–
298.15 K, x1 = 0.05127	–	1.111
298.15 K, x1 = 0.05382	1.186	–
298.15 K, x1 = 0.06722	–	1.231
298.15 K, x1 = 0.08817	1.474	–
298.15 K, x1 = 0.09755	–	1.563
298.15 K, x1 = 0.126	–	2.052
303.15 K, x1 = 0.0009	–	0.8006
303.15 K, x1 = 0.0018	–	0.803
303.15 K, x1 = 0.00893	–	0.824
303.15 K, x1 = 0.0177	–	0.8517
303.15 K, x1 = 0.03478	–	0.9187
303.15 K, x1 = 0.05127	–	1.006
303.15 K, x1 = 0.06722	–	1.114
303.15 K, x1 = 0.09755	–	1.407
303.15 K, x1 = 0.126	–	1.833
303.74 K, x1 = 0.03489	0.9102	–
303.75 K, x1 = 0.05064	0.9936	–
303.86 K, x1 = 0.04115	0.9393	–
306.42 K, x1 = 0.00829	0.7716	–
308.15 K, x1 = 0.0009	–	0.7225
308.15 K, x1 = 0.0018	–	0.7249
308.15 K, x1 = 0.00893	–	0.7458
308.15 K, x1 = 0.0177	–	0.7722
308.15 K, x1 = 0.03478	–	0.8359
308.15 K, x1 = 0.05127	–	0.9163
308.15 K, x1 = 0.06722	–	1.014
308.15 K, x1 = 0.09755	–	1.277
308.15 K, x1 = 0.126	–	1.649
308.44 K, x1 = 0.01952	0.7804	–
308.74 K, x1 = 0.00088	0.7144	–
308.75 K, x1 = 0.02624	0.7947	–
308.94 K, x1 = 0.0146	0.7534	–
309.24 K, x1 = 0.0101	0.7342	–
310.75 K, x1 = 0.05064	0.8742	–
311.42 K, x1 = 0.04115	0.8205	–
311.74 K, x1 = 0.00368	0.6805	–
313.15 K, x1 = 0.0009	–	0.6562
313.15 K, x1 = 0.0018	–	0.6587
313.15 K, x1 = 0.00893	–	0.679
313.15 K, x1 = 0.0177	–	0.7046
313.15 K, x1 = 0.03478	–	0.7648
313.15 K, x1 = 0.05127	–	0.8392
313.15 K, x1 = 0.06722	–	0.929
313.15 K, x1 = 0.09755	–	1.165
313.15 K, x1 = 0.126	–	1.494
318.15 K, x1 = 0.0009	–	0.5992
318.15 K, x1 = 0.0018	–	0.6017
318.15 K, x1 = 0.00893	–	0.6213
318.15 K, x1 = 0.0177	–	0.646
318.15 K, x1 = 0.03478	–	0.7032
318.15 K, x1 = 0.05127	–	0.7724
318.15 K, x1 = 0.06722	–	0.855
318.15 K, x1 = 0.09755	–	1.069
318.15 K, x1 = 0.126	–	1.363
323.02 K, x1 = 0.00088	0.5507	–
323.15 K, x1 = 0.0009	–	0.5496
323.15 K, x1 = 0.0018	–	0.5519
323.15 K, x1 = 0.00351	0.5505	–
323.15 K, x1 = 0.00879	0.5603	–
323.15 K, x1 = 0.00893	–	0.5708
323.15 K, x1 = 0.0177	0.5834	0.5948
323.15 K, x1 = 0.03478	–	0.6489
323.15 K, x1 = 0.05127	–	0.7136
323.15 K, x1 = 0.05382	0.7427	–
323.15 K, x1 = 0.06722	–	0.7896
323.15 K, x1 = 0.08817	0.9292	–
323.15 K, x1 = 0.09755	–	0.9845
323.15 K, x1 = 0.126	–	1.248
